Experimental data from the supplement of paper PMC8967900.

Tests used:
Experiment in all cases: selective drug sensitivity score (sDSS, relative to normal bone marrow) (sDSS (score)); higher = more potent and effective on the cell line relative to normal bone marrow cells
Conditions in all cases: 72 h
380 = tested on: 380
ALL-PO = tested on: ALL-PO
ALL-SIL = tested on: ALL-SIL
COG-LL-317 = tested on: COG-LL-317
COG-LL-319h = tested on: COG-LL-319h
COG-LL-355h = tested on: COG-LL-355h
COG-LL-394h = tested on: COG-LL-394h
DND-41 = tested on: DND-41
HPB-ALL = tested on: HPB-ALL
JURKAT = tested on: JURKAT
KASUMI-10 = tested on: KASUMI-10
KASUMI-9 = tested on: KASUMI-9
MOLT-14 = tested on: MOLT-14
MOLT-4 = tested on: MOLT-4
NALM-16 = tested on: NALM-16
P30-OHKUBO = tested on: P30-OHKUBO
PEER = tested on: PEER
RCH-ACV = tested on: RCH-ACV
REH = tested on: REH
TANOUE = tested on: TANOUE
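Note: ALL cell lines in 384-well plates, five doses spanning 10,000-fold, each plate scaled between vehicle and 100 µmol/L benzalkonium chloride controls, sDSS an adapted area-under-curve metric.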

Compound | selective drug sensitivity score 380 | selective drug sensitivity score (ALL-PO) | selective drug sensitivity score (ALL-SIL) | selective drug sensitivity score (COG-LL-317) | selective drug sensitivity score (COG-LL-319h) | selective drug sensitivity score (COG-LL-355h) | selective drug sensitivity score (COG-LL-394h) | selective drug sensitivity score (DND-41) | selective drug sensitivity score (HPB-ALL) | selective drug sensitivity score (JURKAT) | selective drug sensitivity score (KASUMI-10) | selective drug sensitivity score (KASUMI-9) | selective drug sensitivity score (MOLT-14) | selective drug sensitivity score (MOLT-4) | selective drug sensitivity score (NALM-16) | selective drug sensitivity score (P30-OHKUBO) | selective drug sensitivity score (PEER) | selective drug sensitivity score (RCH-ACV) | selective drug sensitivity score (REH) | selective drug sensitivity score (TANOUE)
COc1cc(Br)c(Nc2nc(-c3c(C)nc4ncccn34)cs2)c(Br)c1 [PTC-209] (top concentration 10000 nM) | -1.48 | -0.98 | 0.42 | 0.42 | 4.12 | -0.38 | -2.58 | -1.18 | 6.92 | 0.62 | 0.92 | 1.92 | -0.88 | -0.48 | -2.38 | 4.52 | -0.38 | 7.12 | 3.62 | -2.58
CCCOc1ccn2c(C(C)=O)cc(-c3ccccc3S(C)(=O)=O)c2c1 [GSK2801] (top concentration 10000 nM) | 3.44 | 0.04 | -0.36 | 0.84 | 4.44 | -0.36 | -0.16 | -0.26 | -0.36 | -0.26 | -0.36 | -0.36 | 2.64 | -0.16 | -0.36 | -0.36 | 0.34 | 3.24 | -0.36 | -0.36
C#Cc1cccc(Nc2ncnc3cc4c(cc23)OCCOCCOCCO4)c1 [Icotinib] (top concentration 10000 nM) | 3.6 | 0.7 | 0.8 | 0 | 1.8 | 0.1 | 0 | 0 | 0 | 0 | 0 | 4.9 | 0 | 0.2 | 0 | 2.1 | 0.7 | 1.2 | 0 | 0
CN(C)C[C@@H]1CCn2cc(c3ccccc32)C2=C(C(=O)NC2=O)c2cn(c3ccccc23)CCO1 [Ruboxistaurin] (top concentration 10000 nM) | 3.96 | 6.86 | -2.94 | 1.16 | -1.04 | 1.26 | 0.76 | -0.44 | -5.14 | -1.84 | 1.96 | 1.36 | 1.66 | -1.24 | -3.74 | 0.46 | 0.46 | 1.06 | -0.54 | -8.24
C=CCc1cccc(/C=N/NC(=O)CN2CCN(Cc3ccccc3)CC2)c1O [PAC-1] (top concentration 10000 nM) | 0.38 | 0.98 | 3.18 | 12.7 | 1.18 | 2.08 | 1.08 | 4.78 | 0.98 | 1.28 | 0.98 | 0.38 | 8.28 | 2.58 | 3.58 | 1.18 | 2.58 | 1.18 | 3.48 | 2.08
Oc1ncnc2[nH]ncc12 [Allopurinol] (top concentration 10000 nM) | -0.64 | -0.64 | -0.14 | -0.64 | 3.56 | -0.64 | -0.64 | -0.64 | 6.06 | -0.64 | -0.64 | -0.64 | -0.64 | -0.64 | -0.64 | 0.96 | -0.64 | -0.64 | -0.64 | -0.64
CC#CC(=O)N1CCC[C@H]1c1nc(-c2ccc(C(=O)Nc3ccccn3)cc2)c2c(N)nccn12 [Acalabrutinib] (top concentration 1000 nM) | 9.6 | -0.1 | -0.1 | -0.1 | 0 | -0.1 | -0.1 | -0.1 | -0.1 | 0 | 1.8 | 1.2 | -0.1 | -0.1 | -0.1 | 1.3 | -0.1 | 1.8 | -0.1 | -0.1
CNC(=O)c1ccc2cc([C@@]3(O)CCn4cncc43)ccc2c1 [Orteronel] (top concentration 10000 nM) | 1.4 | 0 | 0 | 0 | 4.9 | 0 | 0 | 0 | 0 | 0 | 0 | 0 | 0 | 0 | 0 | 0 | 0 | 0 | 0 | 0
C[C@H]1CNCCCN1S(=O)(=O)c1cccc2cncc(F)c12 [Ripasudil] (top concentration 10000 nM) | 3.28 | -0.22 | 0.78 | -0.22 | 1.18 | -0.22 | -0.22 | -0.22 | -0.22 | -0.22 | -0.22 | -0.22 | -0.22 | -0.22 | -0.22 | -0.22 | 1.88 | -0.22 | -0.22 | -0.22
COc1cc2ncnc(Nc3ccc(F)c(Cl)c3)c2cc1NC(=O)/C=C/CN1CCCCC1 [Dacomitinib] (top concentration 1000 nM) | -1.64 | 3.06 | -1.04 | -0.44 | -1.24 | 1.06 | -1.64 | -1.04 | -1.54 | -1.64 | -0.54 | 0.96 | 0.86 | -1.54 | -1.54 | 0.96 | -0.14 | 0.16 | -1.04 | -1.64
O=c1[nH]cc(F)c(=O)[nH]1 [Fluorouracil] (top concentration 10000 nM) | 1.86 | 8.56 | -0.64 | 8.26 | 6.56 | 1.76 | -0.34 | -0.64 | -0.24 | 0.16 | 2.96 | 3.26 | 5.76 | 2.76 | -0.24 | 3.16 | -0.64 | 2.96 | 1.76 | -0.64
CCNC(=O)CCC/C=C\C[C@@H]1[C@@H](/C=C/[C@@H](O)CCc2ccccc2)[C@H](O)C[C@@H]1O [Bimatoprost] (top concentration 5500 nM) | 0 | 0 | 0 | 0 | 0 | 0 | 0 | 5.6 | 0.5 | 0 | 0 | 0 | 0 | 0 | 0 | 0 | 0 | 0 | 1.4 | 0
O=C1CN2Cc3c(ccc(Cl)c3Cl)N=C2N1 [Anagrelide] (top concentration 10000 nM) | 0.1 | 1 | 2.8 | 0 | 0 | 4.6 | 0 | 0 | 0 | 0 | 0 | 0 | 0 | 0 | 0 | 0 | 0 | 0 | 0 | 0
C[C@@H]1C[C@H]2[C@@H]3CCC4=CC(=O)C=C[C@]4(C)[C@@]3(F)[C@@H](O)C[C@]2(C)[C@@]1(O)C(=O)CO [Dexamethasone] (top concentration 10000 nM) | 32.2 | 43.2 | 18.6 | 11.3 | 26.5 | 30.7 | -1.52 | 36.3 | 3.18 | -1.52 | -1.52 | 1.78 | -1.52 | 1.48 | -1.52 | 28.6 | -0.92 | 38.8 | -1.52 | -1.42
COc1cc2c(cc1OCCCN1CCCC1)N=C(N)C21CCC1 [A-366] (top concentration 25000 nM) | -1.84 | 1.76 | -0.34 | 3.06 | 3.16 | 0.76 | 2.06 | 4.56 | -1.84 | -1.04 | 1.46 | 2.36 | 3.16 | 1.36 | -1.84 | 2.56 | 1.46 | 0.06 | 0.36 | -1.84
CCc1cc2c(cc1N1CCC(N3CCOCC3)CC1)C(C)(C)c1[nH]c3cc(C#N)ccc3c1C2=O [Alectinib] (top concentration 1000 nM) | 0.38 | 7.28 | -0.22 | 5.48 | 2.48 | -0.02 | 2.58 | 0.08 | -0.22 | -0.22 | 1.68 | 0.88 | 1.08 | -0.22 | -0.22 | 1.68 | 0.78 | 4.98 | -0.02 | -0.22
Cc1cnc(NC(=O)Nc2cc(Br)c(C)cc2OC[C@@H]2CNCCO2)cn1 [Rabusertib] (top concentration 1000 nM) | -0.74 | 0.46 | -0.74 | 7.36 | 4.26 | 1.96 | -0.74 | 6.16 | -0.74 | -0.74 | -0.74 | -0.04 | 0.16 | -0.74 | -0.74 | -0.74 | -0.74 | 2.06 | 0.06 | 0.46
CN1CCC(COc2cnc(-c3cccc(Cn4nc(-c5cccc(C#N)c5)ccc4=O)c3)nc2)CC1 [Tepotinib] (top concentration 1000 nM) | -0.08 | -0.08 | -0.08 | 0.52 | 2.22 | -0.08 | -0.08 | -0.08 | -0.08 | -0.08 | -0.08 | -0.08 | -0.08 | -0.08 | -0.08 | -0.08 | 0.02 | 0.42 | -0.08 | -0.08
Cc1cc(F)c(C(=O)Nc2cccc(-c3nncn3C(C)C)n2)cc1-n1cnc(C2CC2)c1 [Selonsertib] (top concentration 1000 nM) | 1 | 0 | 0 | 0 | 0 | 0 | 0 | 0 | 0 | 0 | 0 | 1.2 | 0 | 0 | 0 | 0.9 | 0 | 0.5 | 0 | 0
